According to publication PMC11275008, “Anti-Inflammatory and Cancer-Preventive Potential of Chamomile (Matricaria chamomilla L.): A Comprehensive In Silico and In Vitro Study” (Biomedicines, 2024):

Biological target: T1, NF-κB (recombinant human NF-κB; docking used NF-κB p65-RelA) (Homo sapiens, UniProt Q04206)
T1 construct: commercial recombinant protein (Sino Biological); labelled with RED-NHS 2nd generation dye on lysines
Assay: microscale thermophoresis
Type: binding

T1 sequence (Q04206 whole entry): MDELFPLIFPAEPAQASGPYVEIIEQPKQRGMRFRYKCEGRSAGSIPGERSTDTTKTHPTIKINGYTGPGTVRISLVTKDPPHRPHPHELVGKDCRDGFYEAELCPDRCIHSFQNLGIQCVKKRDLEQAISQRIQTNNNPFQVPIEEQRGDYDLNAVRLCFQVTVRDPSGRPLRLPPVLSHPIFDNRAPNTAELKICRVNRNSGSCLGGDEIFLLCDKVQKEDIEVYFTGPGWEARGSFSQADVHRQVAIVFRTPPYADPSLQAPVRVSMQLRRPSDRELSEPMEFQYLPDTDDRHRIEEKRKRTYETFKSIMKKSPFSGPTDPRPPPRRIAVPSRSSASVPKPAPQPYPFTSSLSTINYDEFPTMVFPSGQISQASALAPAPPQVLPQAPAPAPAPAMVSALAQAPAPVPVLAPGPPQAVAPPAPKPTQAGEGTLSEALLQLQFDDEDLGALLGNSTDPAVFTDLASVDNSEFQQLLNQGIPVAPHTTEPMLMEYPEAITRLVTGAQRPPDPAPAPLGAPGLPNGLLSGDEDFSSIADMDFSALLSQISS

Kd: 0.943 ± 0.113 µM
Compound: CC1(C)CC[C@]2(C)CC[C@]3(C)C(=CC[C@@H]4[C@@]5(C)CC[C@H](O)C(C)(C)[C@@H]5CC[C@]43C)[C@@H]2C1 [β-amyrin]
